US7202280B2, “Methods for the treatment and prevention of pancreatitis and for induction of liver regeneration” (priority 2002, dated 2007)

Experiments:
[1] = tested on: rats with arginine-induced pancreatitis; test: Arginine-induced pancreatitis; type: in vivo, rat
Protocol: FIG. 6 Plasma α-amylase activity in rats with arginine-induced pancreatitis after methylspermidine. The animals received […]-500 mg/kg) 24 h before sacrifice with or without methylspermidine (50 mg/kg) either as a single dose 4 h before arginine or as two doses 20 h and 4 h before arginine. Three to five animals in each group. Arg, Arginine. Me-Spd, methylspermidine. Administration of large quantities of arginine is known to cause acute, necrotizing pancreatitis in rats.

[2] = tested on: SSAT; test: SSAT activity in SSAT transgenic rats after polyamine analogues without or with MDL72527; type: in vivo, rat
Protocol: FIGS. 9A–9B. Effect of polyamine analogues without or with MDL72527 on hepatic SSAT (FIG. 9A) and PAO (FIG. 9B) activities in SSAT transgenic rats. The rats were treated with the drugs as described in the legend for FIGS. 8A–8D. There were three to four animals in each group.
The production of transgenic Wistar rats (UKUR30) and mice (UKU181) harboring metallothionein-SSAT fusion gene (Suppola, S., Pietilä, M., Parkkinen, J. J., Korhonen, V. P., Alhonen, L., Halmekytö, M., Porter, C. W., and Jänne, J. (1999) Biochem. J. 338, 311–316) has been described earlier (Alhonen, L., Parkkinen, J. J., Keinänen, T., Sinervirta, R., Herzig, K. H., and Jänne, J. (2000) Proc. Natl. Acad. Sci. U.S.A. 97, 8290–8295; Lukkarinen, J., Gröhn, O., Sinervirta, R., Järvinen, A., Kauppinen, R. A., Jänne, J., and Alhonen, L. (1997) Stroke 28, 639–645). Partial hepatectomy was carried out according to the original method of Higgins and Anderson (Higgins, G. H., and Anderson, R. M. (1931) Arch. Pathol. 12, 186–202). […]
PAO activity was measured to verify the effectiveness of MDL72527 treatment and to determine whether the analogues have any effect on its activity. […]

CC(N)CCNCCCCN (stereo not drawn) [α-methylspermidine, 1-methylspermidine]
plasma amylase ([1]; arginine 250–500 mg/kg, single dose 50 mg/kg): significantly reduced the pancreatitis-associated increase in plasma amylase | plasma amylase levels ([1]; arginine 250–500 mg/kg, two repeated doses): fully normalized | histopathological changes in the pancreas ([1]; arginine-induced pancreatitis): prevented the histopathological changes

CC(N)CCNCCCCNCCC(C)N (stereo not drawn) [bis-α-methylspermine, 1,12-dimethylspermine]
hepatic SSAT activity ([2]; analogue 25 mg/kg i.p. twice): significantly increased hepatic SSAT activity | hepatic SSAT activity ([2]; analogue combined with MDL72527): further enhanced
